Data: patent US10392422B2, “Macrocyclic broad spectrum antibiotics” (priority 2014, dated 2019)
Converted amounts (≈) assume the structure as drawn. Where two headings read alike, the source gives them in different places.

Key:
Assay in all cases: MIC, broth micro-dilution technique (CLSI)
[1] = test system: Escherichia coli MC4100 harboring the IMP4213; type: cell-based; settings: Escherichia coli, 22 h
Outline: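 MICs determined after 35 °C, 22 h incubation of bacteria (final OD600 0.0005) with 10-point 2-fold compound series. Series topped at 64 μg/ml in the standard protocol or 4 μg/mL in the modified one. Medium: cation-adjusted Mueller Hinton broth plus 0.002% Tween-80. E. coli MC4100 imp4213 has a permeabilized outer membrane.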

[2] = test system: Methicillin Resistant Staphylococcus aureus strain USA 300 (NRS384); type: cell-based; settings: Staphylococcus aureus, 22 h, read-out: MIC (μg/mL) S. aureus
Outline: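 CLSI broth microdilution in cation-adjusted Mueller Hinton broth with 0.002% v/v Tween-80. Compounds were serially 2-fold diluted over 10 concentrations from 64 μg/ml, or from 4 μg/mL in a modified protocol; inoculum at final OD600 0.0005, incubated 35° C for 22 hours.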

MRSA COL (NRS100) = type: cell-based, Staphylococcus aureus; settings: Staphylococcus aureus, 22 h, read-out: MIC (μg/mL) (COL)
Procedure: In vitro antimicrobial activity of each compound was determined by measuring minimal inhibitor concentrations (MICs) using the broth micro-dilution technique as approved by the Clinical and Laboratory Standards Institute (CLSI) (Methods for Dilution Antimicrobial Susceptibility Tests for Bacteria that Grow Aerobically; Approved Standard—Eighth Edition. CLSI document M07-A8. Wayne, Pa.: Clinical and Laboratory Standards; 2009). Antibacterial activity was measured against three strains of bacteria: a Methicillin Resistant Staphylococcus aureus strain USA 300 (NRS384); a MRSA COL (NRS100), another Methicillin Resistant Staphylococcus aureus strain; and a strain of Escherichia coli MC4100 harboring the IMP4213, which results in increased outer-membrane permeability (B Martin and Silhavy T. Imp/OstA is required for cell envelope biogenesis in Escherichia coli. (2002) Molecular Microbiology, 45(5), 1289-1302). Cells were inoculated onto plates of Trypyticase Soy Agar or Luria Agar respectively and grown at 35° C. for 20 hours. Inocula suspensions were prepared by scraping cells into 1 ml of testing media (cation adjusted Mueller Hinton Broth supplemented with 0.002% v/v Tween-80) and diluting to a final OD600 nm of 0.01.
Test compounds were prepared in DMSO at a concentration of 10 mg/ml. These compound stocks were diluted into testing media at a concentration of 64 μg/ml and serial 2-fold dilutions were made in the same media, in 96-well U bottom microtiter dishes, for a total of 10 compound concentrations (Table 1). In modified protocols (Table 2), compound stocks were diluted into testing media at a concentration of 4 μg/mL and serial 2-fold dilutions were made in the same media, in 96-well U bottom microtiter dishes, for a total of 10 compound concentrations. Inocula suspensions were added to the 2-fold serial dilutions of test compounds to a final density of OD OD600 nm of 0.0005 and incubated at 35° C. for 22 hours. […] The results from the protocol starting from a concentration of 64 µg/mL are listed in Table 1 and the results from the modified protocol are shown in Table 2.

[3] = read-out: MIC (μg/mL) E. coli, Table 1 protocol: serial 2-fold dilutions starting from 64 μg/ml, 35° C., 22 hours
[4] = Table 1 protocol: serial 2-fold dilutions starting from 64 μg/ml, 35° C., 22 hours

| Structure (SMILES) | MIC ([1]; read-out: MIC (μg/mL) E. coli) [µg/mL] | MIC [2] [µg/mL] | MIC (MRSA COL (NRS100)) [µg/mL] | MIC [1, 3] [µg/mL] | MIC [2, 4] [µg/mL] | MIC (MRSA COL (NRS100); [4]) [µg/mL] |
| --- | --- | --- | --- | --- | --- | --- |
| COP(=O)(O)CC(=O)[C@H](C)NC(=O)[C@@H]1Cc2ccc(O)c(c2)-c2cc(ccc2O)[C@H](N(C)C(=O)[C@H](CCCCN)NC(=O)c2ccc(-c3ccc(Cl)cc3)cc2)C(=O)N[C@@H](C)C(=O)N1 [Compound 167] | > 64 | 16 (≈ 17.4 µM) | 4 (≈ 4.35 µM) |  |  |  |
| C[C@@H]1NC(=O)[C@@H](N(C)C(=O)[C@H](CCCCN)NC(=O)c2ccc(-c3ccc(Cl)cc3)cc2)c2ccc(O)c(c2)-c2cc(ccc2O)C[C@@H](C(=O)N[C@@H](C)C(=O)N2CSC[C@@H]2C(N)=O)NC1=O [Compound 175] |  |  |  | 32 (≈ 34 µM) | > 64 | 32 (≈ 34 µM) |
| C[C@@H]1NC(=O)[C@@H](N(C)C(=O)[C@H](CCCCN)NC(=O)c2ccc(-c3ccc(Cl)cc3)cc2)c2ccc(O)c(c2)-c2cc(ccc2O)C[C@@H](C(=O)N[C@@H](C)C(=O)N2C[C@@H](O)C[C@H]2C(N)=O)NC1=O [Compound 177] |  |  |  | 64 (≈ 68.1 µM) | 16 (≈ 17 µM) | 4 (≈ 4.26 µM) |
| C[C@H](NC(=O)[C@@H]1CCCN1C(=O)[C@H](C)NC(=O)[C@@H]1Cc2ccc(O)c(c2)-c2cc(ccc2O)[C@H](N(C)C(=O)[C@H](CCCCN)NC(=O)c2ccc(-c3ccc(Cl)cc3)cc2)C(=O)N[C@@H](C)C(=O)N1)C(N)=O [Compound 179] |  | 32 (≈ 32.2 µM) | 16 (≈ 16.1 µM) | 64 (≈ 64.4 µM) |  |  |
| C[C@@H]1NC(=O)[C@@H](N(C)C(=O)[C@H](CCCCN)NC(=O)c2ccc(-c3ccc(Cl)cc3)cc2)c2ccc(O)c(c2)-c2cc(ccc2O)C[C@@H](C(=O)N[C@@H](C)C(=O)N(C)CC(N)=O)NC1=O [Compound 182] |  |  |  | 64 (≈ 71.3 µM) | 10 (≈ 11.1 µM) | 2 (≈ 2.23 µM) |
| C[C@@H]1NC(=O)[C@@H](N(C)C(=O)[C@H](CCCCN)NC(=O)c2ccc(-c3ccc(Cl)cc3)cc2)c2ccc(O)c(c2)-c2cc(ccc2O)C[C@@H](C(=O)N[C@@H](C)C(=O)N(C)[C@@H](C)C(N)=O)NC1=O [Compound 183] |  |  |  | 32 (≈ 35.1 µM) | 8 (≈ 8.78 µM) | 2.4 (≈ 2.63 µM) |
| C[C@@H]1NC(=O)[C@@H](N(C)C(=O)[C@H](CCCCN)NC(=O)c2ccc(-c3ccc(Cl)cc3)cc2)c2ccc(O)c(c2)-c2cc(ccc2O)C[C@@H](C(=O)N[C@@H](C)C(=O)N2CCC[C@H]2C(=O)NN)NC1=O [Compound 186] |  |  |  | > 64 | 45 (≈ 47.9 µM) | 12 (≈ 12.8 µM) |
| CCCCCCCCCCNCCC(=O)N[C@@H](CCCCN)C(=O)N(C)[C@@H]1C(=O)N[C@@H](C)C(=O)N[C@H](C(=O)N[C@@H](C)C(=O)N(C)[C@H]2CCNC2=O)Cc2ccc(O)c(c2)-c2cc1ccc2OCCN [Compound 187] |  |  |  | 23 (≈ 23.9 µM) | 3.7 (≈ 3.84 µM) | 0.5 (≈ 0.519 µM) |
| CC(NC(=O)[C@@H]1Cc2ccc(O)c(c2)-c2cc(ccc2O)[C@H](N(C)C(=O)[C@H](CCCCN)NC(=O)c2ccc(-c3ccc(Cl)cc3)cc2)C(=O)N[C@@H](C)C(=O)N1)C(=O)c1ncco1 (stereo partly drawn) [Compound 188] |  |  |  | 11 (≈ 12.5 µM) | 16 (≈ 18.2 µM) | 4 (≈ 4.55 µM) |
| C[C@H](NC(=O)[C@@H]1Cc2ccc(O)c(c2)-c2cc(ccc2O)[C@H](N(C)C(=O)[C@H](CCCCN)NC(=O)c2ccc(-c3ccc(Cl)cc3)cc2)C(=O)N[C@@H](C)C(=O)N1)C(=O)CC(N)=O [Compound 189] |  |  |  | 32 (≈ 36.8 µM) | 5.7 (≈ 6.56 µM) | 2 (≈ 2.3 µM) |
| CCCCCCCCCCNCCC(=O)N[C@@H](CCCCN)C(=O)N(C)[C@@H]1C(=O)N[C@@H](C)C(=O)N[C@H](C(=O)N[C@@H](C)C(=O)N2CCC[C@H]2C(N)=O)Cc2ccc(O)c(c2)-c2cc1ccc2OCCN [Compound 190] |  |  |  | 32 (≈ 33.2 µM) | 1.7 (≈ 1.76 µM) | 0.25 (≈ 0.26 µM) |
| COC(=O)CC(=O)[C@H](C)NC(=O)[C@@H]1Cc2ccc(O)c(c2)-c2cc(ccc2O)[C@H](N(C)C(=O)[C@H](CCCCN)NC(=O)c2ccc(-c3ccc(Cl)cc3)cc2)C(=O)N[C@@H](C)C(=O)N1 [Compound 191] |  |  |  | > 64 | 32 (≈ 36.2 µM) | 8 (≈ 9.06 µM) |
| C[C@H](NC(=O)[C@@H]1Cc2ccc(O)c(c2)-c2cc(ccc2O)[C@H](N(C)C(=O)[C@H](CCCCN)NC(=O)c2ccc(-c3ccc(Cl)cc3)cc2)C(=O)N[C@@H](C)C(=O)N1)C(=O)Cc1c[nH]nn1 [Compound 192] |  |  |  | 64 (≈ 71.7 µM) | 11 (≈ 12.3 µM) | 2 (≈ 2.24 µM) |
| CCCCCCCCCCNCCC(=O)N[C@@H](CCCCN)C(=O)N(C)[C@@H]1C(=O)N[C@@H](C)C(=O)N[C@H](C(=O)N[C@@H](C)C(=O)c2nnn[nH]2)Cc2ccc(O)c(c2)-c2cc1ccc2OCCN [Compound 193] |  |  |  | 8 (≈ 8.7 µM) | 0.5 (≈ 0.544 µM) | 0.13 (≈ 0.141 µM) |
| CC(NC(=O)[C@@H]1Cc2ccc(O)c(c2)-c2cc(ccc2O)[C@H](N(C)C(=O)[C@H](CCCCN)NC(=O)c2ccc(-c3ccc(Cl)cc3)cc2)C(=O)N[C@@H](C)C(=O)N1)C(=O)c1ncccn1 (stereo partly drawn) [Compound 194] |  |  |  | 8 (≈ 8.99 µM) | 8 (≈ 8.99 µM) | 4 (≈ 4.5 µM) |
| COCC(=O)[C@H](C)NC(=O)[C@@H]1Cc2ccc(O)c(c2)-c2cc(ccc2OCCN)[C@H](N(C)C(=O)[C@H](CCCCN)NC(=O)c2ccc(-c3ccc(Cl)cc3)cc2)C(=O)N[C@@H](C)C(=O)N1 [Compound 195] |  |  |  | 2 (≈ 2.23 µM) | 2.8 (≈ 3.12 µM) | 0.38 (≈ 0.423 µM) |
| CCCCCCCCCCNCCC(=O)N(C)[C@@H]1C(=O)N[C@@H](C)C(=O)N[C@H](C(=O)N[C@@H](C)C(C)=O)Cc2ccc(O)c(c2)-c2cc1ccc2O [Compound 196] |  | 4 (≈ 5.76 µM) | 1 (≈ 1.44 µM) | > 64 |  |  |
| C[C@@H]1NC(=O)[C@@H](N(C)C(=O)[C@H](CCCCN)NC(=O)c2ccc(-c3ccc(Cl)cc3)cc2)c2ccc(O)c(c2)-c2cc(ccc2O)C[C@@H](C(=O)N[C@@H](C)C(=O)N(C)[C@H](C)C(N)=O)NC1=O [Compound 197] |  |  |  | 32 (≈ 35.1 µM) | 20 (≈ 21.9 µM) | 3.9 (≈ 4.28 µM) |
| C[C@@H]1NC(=O)[C@@H](N(C)C(=O)[C@H](CCCCN)NC(=O)c2ccc(-c3ccc(Cl)cc3)cc2)c2ccc(O)c(c2)-c2cc(ccc2O)C[C@@H](C(=O)N[C@@H](C)C(=O)N(C)[C@@H](CO)C(N)=O)NC1=O [Compound 198] |  |  |  | 16 (≈ 17.3 µM) | 13 (≈ 14 µM) | 2 (≈ 2.16 µM) |
| C[C@@H]1NC(=O)[C@@H](N(C)C(=O)[C@H](CCCCN)NC(=O)c2ccc(-c3ccc(Cl)cc3)cc2)c2ccc(O)c(c2)-c2cc(ccc2O)C[C@@H](C(=O)N[C@@H](CO)C(=O)N(C)[C@@H](C)C(N)=O)NC1=O [Compound 199] |  |  |  | 64 (≈ 69 µM) | 10 (≈ 10.8 µM) | 2 (≈ 2.16 µM) |
| CCCCCCCCCCNCCC(=O)N[C@@H](CCCCN)C(=O)N(C)[C@@H]1C(=O)N[C@@H](C)C(=O)N[C@H](C(=O)N[C@@H](C)C(=O)COC(C)=O)Cc2ccc(O)c(c2)-c2cc1ccc2O [Compound 200] |  |  |  | 64 (≈ 72.7 µM) | 2 (≈ 2.27 µM) | 0.5 (≈ 0.568 µM) |
| CCCCCCCCCCNCCC(=O)N[C@@H](CCCCN)C(=O)N(C)[C@@H]1C(=O)N[C@@H](C)C(=O)N[C@H](C(=O)N[C@@H](C)C(=O)CO)Cc2ccc(O)c(c2)-c2cc1ccc2OCCN [Compound 201] |  |  |  | 8 (≈ 9.08 µM) | 0.35 (≈ 0.397 µM) | 0.063 (≈ 0.0715 µM) |
| CC(=O)[C@H](C)NC(=O)[C@@H]1Cc2ccc(O)c(c2)-c2cc(ccc2OCCCN)[C@H](N(C)C(=O)[C@H](CCCCN)NC(=O)c2ccc(-c3ccc(Cl)cc3)cc2)C(=O)N[C@@H](C)C(=O)N1 [Compound 202] |  |  |  | 8 (≈ 9.07 µM) | 2.8 (≈ 3.17 µM) | 0.5 (≈ 0.567 µM) |
| CNCCNCCOc1ccc2cc1-c1cc(ccc1O)C[C@@H](C(=O)N[C@@H](C)C(C)=O)NC(=O)[C@H](C)NC(=O)[C@H]2N(C)C(=O)[C@H](CCCCN)NC(=O)c1ccc(-c2ccc(Cl)cc2)cc1 [Compound 204] |  |  |  | 8 (≈ 8.64 µM) | 11 (≈ 11.9 µM) | 1 (≈ 1.08 µM) |
